In patent US20250297232A1, “BACTERIAL MYELOPEROXIDASE-CATALASE AND APPLICATIONS THEREOF” (UNIVERSITÉ DE BORDEAUX, priority 2022, published 2025):
“And” between values parts separate entries of the source, which are not always exact repeats. Equal entries are not always repeated. Where two headings read alike, the source gives them in different places. Values belong to the compound of their own block, whether it stands above or below them.

Assays:
[1] = tested on: Rhodopirellula baltica RbMPO, wild type, SEQ ID NO: 1; details: 0.5 nM wt RbMPO, 79 μM H2O2, 37° C., pH5.5
Procedure: The plate reader was configured to run a 10 min kinetics at 430 nm with the following ABTS concentration range: 0, 0.1, 0.2, 0.5, 1, 2, 5, 10, 15, 20, 30 and 40 mM.

[2] = tested on: Rhodopirellula baltica RbMPO variant H407A (of SEQ ID NO: 1); details: read-out: KM H2O2; H407A 1 μM; H2O2 range, 500 mM NaCl, 10 μM APF, 37° C., pH7.5
[3] = tested on: Rhodopirellula baltica RbMPO variant Q199A (of SEQ ID NO: 1); details: Q199A 1 μM, H2O2 range, 500 mM NaCl, 10 μM APF, 37° C., pH7.5
[4] = target: Rhodopirellula baltica RbMPO, wild type, SEQ ID NO: 1; test: Pre-steady-state kinetics: compound I formation and return to native state (stopped-flow, 412 nm); assay type: biochemical; details: for Ki: H2O2 excess; for Vreturn (Sreturn/[enzyme]) / kreturn max (return to native state) / kreturn/K1/2 (return to native state): wt RbMPO […], H2O2 20 μM
Procedure: In the first moment after an enzyme is mixed with a substrate, no product has been formed and no intermediates exist. The study of the next few milliseconds of the reaction is called pre-steady-state kinetics.
Kinetic parameters under pre-steady-state condition were performed with a Biologic SFM400 stopped-flow at 412 nm, 37° C. and with 50 mM sodium phosphate buffer at pH7.5. […] An exponential linear fit was applied to each kinetic using the following formula: […]
where p1 corresponds to the exponential magnitude, p2 to the decay time Tau (s) and
The heme Soret band is at 412 nm for the native Fe^III iron form, which is why the decrease in absorbance was followed at this particular wavelength as a function of time. The rate constant was measured using the A412nm curves as a function of time (data not shown). By applying Eq.4 to the exponential part of each kinetic, the values of Tau (s) were determined and the kobs (s^−1) were calculated.
The return of the enzyme to its native state was studied by the impact of increasing concentrations of (pseudo)-halides substrates on compound I (FIG. 9B). […] It is the time difference (s) between the two characteristic steps that allowed the calculation of the values of the Vreturn(μM^−1.s^−1) values: […]

[5] = tested on: Rhodopirellula baltica RbMPO, wild type, SEQ ID NO: 1; details: for kcatapp/KMappNaSCN (NaBr range) / kss/[Cl^−] (k2): 79 μM H2O2; for kss/[Cl^−] (k2): NaCl range
Procedure: (§6) Initial rate measurements under steady state conditions were performed with a BioLogic SFM400 stopped-flow by using a single-mixing mode and an Xe/Hg lamp and a TC100/10 cell. […] At least five 120 s shots were monitored for each value of the substrate range with the following sample rates: 20 μs, 20 ms, 20 ms with 2000 points per period. Slopes were calculated from the average of the shorts for each concentration and kss (s^−1) were determined from the slopes using the following formula:
(§7) The collected data were analysed with Origin software, then saturation curves for each substrate were fitted either by non-linear regression with or without inhibition by excess of substrate (Eq. 1 and 2) with [S]the substrate of interest, or by linear regression (Eq. 3) with a the slope and b the y-intercept.
(§8) The stopped-flow was used to define the steady-state kinetic parameters of RbMPOs. […] From the averages of the curves obtained for each shot, the slopes in Abs.s^−1 were calculated and then converted into kss by the following relation:

[6] = tested on: Rhodopirellula baltica RbMPO variant N317M (of SEQ ID NO: 1); details: N317M 1 μM, H2O2 range, 500 mM NaCl, 10 μM APF, 37° C., pH7.5
Source text: (§1) The chlorination activity of myeloperoxidases can be determined using the aminophenyl fluorescein (APF) probe. One can indeed detect the oxidation of APF (non-fluorescent) by HOCl into fluorescein, a fluorescent molecule that is detectable at λex=485 nm and λem=525 nm. According to such test, the fluorescence measured is proportional to the quantity of fluorescein, which itself is proportional to the quantity of HOCl produced by the myeloperoxidase.
(§2) Measurements of chlorination activity were herein performed in Corning 384-well clear-bottom (flat-bottom) plates with a reaction volume of 20 μL, in triplicate at 37° C., and in a 50 mM NaPi buffer at pH7.5. […] A 10 to 30 minutes kinetic was performed for each range value and the fluorescence intensity was compared to that of the standard fluorescein range. Thus, the measured fluorescence is proportional to the amount of fluorescein, which in turn is proportional to the amount of HOCl produced by the RbMPOs.
(§3) The slopes were measured at the onset of the reaction in order to be in initial velocity. From these values, it was possible to calculate the kss with the following equation: […]

[7] = tested on: Rhodopirellula baltica RbMPO variant D202A, E316A (of SEQ ID NO: 1)
Source text: as §1, §2, §3

[8] = tested on: Rhodopirellula baltica RbMPO, wild type, SEQ ID NO: 1; details: 37° C.; for Km: read-out: KM (catalase, H2O2); for Ki: read-out: Ki (catalase, H2O2)
Procedure: Catalase activity was measured using the stopped-flow set-up, which was configured to measure absorbance decay at 240 nm and at 37° C.

[9] = tested on: Rhodopirellula baltica RbMPO variant N317M (of SEQ ID NO: 1)
Procedure: as §6, §7, §8

[10] = tested on: Rhodopirellula baltica RbMPO variant H203A (of SEQ ID NO: 1)
Procedure: as §6, §7
(§9) From the averages of the curves obtained for each shot, the slopes in Abs.s^−1 were calculated and then converted into kss by the following relation:

[11] = tested on: Rhodopirellula baltica RbMPO variant D202A, E316A (of SEQ ID NO: 1); remark: listed apart in the source
Procedure: as §6, §7, §9

[12] = tested on: Rhodopirellula baltica RbMPO variant E316A (of SEQ ID NO: 1)
Procedure: as §6, §7, §8

[13] = tested on: Rhodopirellula baltica RbMPO variant Q199A (of SEQ ID NO: 1)
Procedure: as §6, §7, §8

[14] = tested on: Rhodopirellula baltica RbMPO variant H407A (of SEQ ID NO: 1)
Procedure: as §6, §7, §9

[15] = tested on: Rhodopirellula baltica RbMPO variant D202A (of SEQ ID NO: 1); details: pH 7.5
Procedure: as §6, §7, §8

[16] = tested on: Rhodopirellula baltica RbMPO variant D202A (of SEQ ID NO: 1); test: Heme reconstitution (apo to holo) by tryptophan fluorescence quenching; assay type: binding; details: D202A 1 μM; 25° C., pH7.5
Procedure: (§4) Tryptophan fluorescence quenching and recovery can be used to monitor the protein confirmation changes from an “apo” to an “holo” form upon addition of its coenzyme (herein heme).
(§5) The Trp fluorescence quenching experiment was performed in a spectrofluorometric FP8300 with a temperature-controlled stirred-cell (25° C.). […] Sample dilutions were performed in a 50 mM pH7.5 sodium phosphate buffer.

[17] = tested on: Rhodopirellula baltica RbMPO variant N317M (of SEQ ID NO: 1); test: as above; assay type: binding; details: N317M 1 μM; 25° C., pH7.5
Procedure: as §4, §5

[18] = target: Rhodopirellula baltica RbMPO variant D202A, E316A (of SEQ ID NO: 1); test: as above; assay type: binding; details: E316A 1 μM, 25° C., pH7.5
Procedure: as §4, §5

[19] = tested on: Rhodopirellula baltica RbMPO variant Q199A (of SEQ ID NO: 1); test: as above; assay type: binding; details: Q199A 1 μM; 25° C., pH7.5
Procedure: as §4, §5

[20] = tested on: Rhodopirellula baltica RbMPO, wild type, SEQ ID NO: 1; test: as above; assay type: binding; details: wt RbMPO 1 μM; 25° C., pH7.5
Procedure: as §4, §5

[21] = tested on: Rhodopirellula baltica RbMPO variant H203A (of SEQ ID NO: 1); test: as above; assay type: binding; details: H203A 1 μM; 25° C., pH7.5
Procedure: as §4, §5

[22] = tested on: Rhodopirellula baltica RbMPO variant H407A (of SEQ ID NO: 1); test: as above; assay type: binding; details: H407A 1 μM; 25° C., pH7.5
Procedure: as §4, §5

[23] = tested on: Rhodopirellula baltica RbMPO variant E316A (of SEQ ID NO: 1); test: as above; assay type: binding; details: E316A 1 μM; 25° C., pH7.5
Procedure: as §4, §5

[24] = H2O2, wt RbMPO 1.78 μM, 37° C., pH7.5
[25] = wt, 300 nM enzyme, 79 μM H2O2, 37° C., pH 7.5

SMILES: CCn1c(=NN=c2sc3cc(S(=O)(=O)O)ccc3n2CC)sc2cc(S(=O)(=O)O)ccc21 [ABTS, 2,2′-azino-bis(3-ethylbenzothiazoline-6-sulfonic acid)]
k2 (peroxidase, ABTS) [1]: 10620 ± 1510 M⁻¹ s⁻¹

SMILES: OO [H2O2, hydrogen peroxide]
Km [2]: 270 ± 90 µM
Km ([3]; read-out: KM H2O2): 490 ± 150 µM
Ki ([3]; read-out: Ki H2O2): 18.3 ± 5.34 mM
Kd [4, 24]: 0.0569 ± 0.0201 mM
kobsmax (compound I formation) [4, 24]: 57.09 ± 8.60 s⁻¹
Ki ([4]; read-out: Ki (compound I formation, text)): 10.9 mM
Ki ([4]; wt RbMPO 1.78 μM, 37° C., pH7.5, read-out: Ki (compound I formation)): 10.9 ± 3 mM
kcatapp (H2O2) ([5]; H2O2 range, Br 100 mM, 267 nM wt RbMPO): 113.72 ± 72.11 s⁻¹
kcatapp (H2O2) ([5]; H2O2 range, SCN 5 mM, 267 nM wt RbMPO): 203.24 ± 45.46 s⁻¹
Km ([5]; read-out: KMapp (H2O2), H2O2 range, Br 100 mM, 267 nM wt RbMPO): 230 ± 210 µM
Km ([5]; read-out: KMapp (H2O2), H2O2 range, SCN 5 mM, 267 nM wt RbMPO): 120 ± 40 µM
Km ([6]; read-out: KM H2O2): 320 ± 90 µM
Ki ([6]; read-out: Ki H2O2): 48.1 ± 15.4 mM
Km ([7]; read-out: KM H2O2, E316A 1 μM, H2O2 range, 500 mM NaCl, 10 μM APF, 37° C., pH7.5): 220 ± 60 µM
Ki ([7]; read-out: Ki H2O2, E316A 1 μM, H2O2 range, 500 mM NaCl, 10 μM APF, 37° C., pH7.5): 96.3 ± 31.9 mM
kcat (catalase, H2O2) ([8]; pH 7, 2 μM wt RbMPO): 1.62 ± 0.86 s⁻¹
kcat (catalase, H2O2) ([8]; pH 7.5, 2 μM wt RbMPO): 56.64 ± 20.62 s⁻¹
Km ([8]; pH 7, 2 μM wt RbMPO): 40 ± 40 µM
Km ([8]; pH 7.5, 2 μM wt RbMPO): 170 ± 110 µM
Ki ([8]; pH 7, 2 μM wt RbMPO): 0.54 ± 0.57 mM
Ki ([8]; pH 7.5, 2 μM wt RbMPO): 1.07 ± 0.7 mM

Vreturn (Sreturn/[enzyme]) ([4]; 37° C., pH7.5): 16.66 ± 0.65 s⁻¹
SMILES: I [I^−]
kreturn max (return to native state) ([4]; 37° C., pH7.5): 31.65 ± 1.23 µM/s

SMILES: [Br-].[Na+] [NaBr]
kss/[SCN^−] (NaBr range) [9]: 2.22 ± 1.20 M⁻¹ s⁻¹
Vreturn (Sreturn/[enzyme]) ([4]; 37° C., pH7.5): 11.11 ± 0.57 s⁻¹
kreturn max (return to native state) ([4]; 37° C., pH7.5): 21.11 ± 1.09 µM/s
kreturn/K1/2 (return to native state) ([4]; 37° C., pH7.5): 607.77 ± 161.51 M⁻¹ s⁻¹
Km ([5]; read-out: KMapp (NaBr), wt, 300 nM enzyme, 79 μM H2O2, 37° C., pH 7.5): 133000 ± 32800 µM
kcatapp (NaBr) [5, 25]: 76.33 ± 5.12 s⁻¹
kcatapp/KMappNaSCN (NaBr range) ([5]; wt, 300 nM enzyme): 576.86 ± 172.22 M⁻¹ s⁻¹
kcatapp/KMappNaSCN (NaBr range) ([5]; wt, 300 nM enzyme, listed as Br^−): 576.96 ± 172.22 M⁻¹ s⁻¹
kss/[SCN^−] (NaBr range) [10]: 73.94 ± 15.07 M⁻¹ s⁻¹
activity (NaBr range) [11]: No activity
activity (NaBr range) [12]: No activity
kss/[SCN^−] (NaBr range) [13]: 78.19 ± 22.00 M⁻¹ s⁻¹

SMILES: [Cl-].[Na+] [NaCl]
Vreturn (Sreturn/[enzyme]) ([4]; 37° C., pH7.5): 1.37 ± 0.19 s⁻¹
kreturn max (return to native state) ([4]; 37° C., pH7.5): 2.61 ± 0.37 µM/s
kreturn/K1/2 (return to native state) ([4]; 37° C., pH7.5): 5169 ± 4872 M⁻¹ s⁻¹
kss/[Cl^−] (k2) ([5]; wt, 300 nM enzyme): 5.46 ± 0.67 M⁻¹ s⁻¹
kss/[Cl^−] (k2) ([5]; wt, 300 nM enzyme, listed as Cl^−): 4.48 ± 0.64 M⁻¹ s⁻¹

SMILES: N#C[S-].[Na+] [NaSCN]
k2 (NaSCN) ([9]; pH 7.5): 1074 ± 53 M⁻¹ s⁻¹
Vreturn (Sreturn/[enzyme]) ([4]; 37° C., pH7.5): 13.65 ± 0.51 s⁻¹
kreturn max (return to native state) ([4]; 37° C., pH7.5): 25.94 ± 0.97 µM/s
Km ([5]; read-out: KMapp (NaSCN), wt, 300 nM enzyme, 79 μM H2O2, 37° C., pH 7.5): 510 ± 80 µM
kcatapp (NaSCN) [5, 25]: 56.90 ± 6.92 s⁻¹
activity in presence of SCN [14]: not active
kcatapp (NaSCN) [15]: 83.54 ± 12.04 s⁻¹
Km ([15]; read-out: KMapp (NaSCN)): 980 ± 310 µM
k2 (NaSCN) ([12]; pH 7.5): 1936 ± 374 M⁻¹ s⁻¹
activity (NaSCN range) [13]: No activity

SMILES: C=CC1=C(C)c2cc3[nH]c(cc4nc(cc5[nH]c(cc1n2)c(C)c5CCC(=O)O)C(CCC(=O)O)=C4C)c(C)c3C=C.[Fe+3] [heme]
k2 (heme reconstitution) [16]: 302+23.4 M−1 · s−1
k2 (heme reconstitution) [17]: 470.2 ± 57.8 M⁻¹ s⁻¹ and 472.2 ± 57.8 M⁻¹ s⁻¹
Kd [18]: 0.0109 ± 0.00614 mM
Kobsmax (heme reconstitution) [18]: 0.28 ± 0.06 s⁻¹
k2 (heme reconstitution) [19]: 1720 ± 133 M⁻¹ s⁻¹
k2 (heme reconstitution) [20]: 1430 ± 74.4 M⁻¹ s⁻¹
k2 (heme reconstitution) [21]: 1840 ± 167 M⁻¹ s⁻¹
k2 (heme reconstitution) [22]: 1320 ± 18.9 M⁻¹ s⁻¹
k2 (heme reconstitution) [23]: 418 ± 34 M⁻¹ s⁻¹
